Test results: article PMC6026847, “Synthesis and Evaluation of the First Fluorescent Antagonists of the Human P2Y2 Receptor Based on AR-C118925” (Journal of Medicinal Chemistry, 2018)
Read-outs that look alike come from different tables or passages of the source.

Tests used:
[1] = test system: hP2Y2; parameters: method as in PMID 8564228; conditions: endogenous agonists; cited from earlier work
[2] = molecular target: T1, NLuc-P2Y2R (Homo sapiens, UniProt P41231); experiment: NanoBRET saturation binding in NLuc-P2Y2R 1321N1 astrocytoma cells; conditions: for Kd / NanoBRET pKd: saturation binding curves, 1321N1 cells expressing NLuc-P2Y2R, mean ± SEM; for specific NanoBRET signal: fixed 10 μM fluorescent conjugate in presence or absence of 10 μM 1, among 78–91 (Figure S1); for NanoBRET pKd: Table 4
T1 construct: expressed in transfected cells
Method: To determine whether any of these conjugates had affinities for P2Y2R and consequently if they could be used in NanoBRET binding assays, a 1321N1 astrocytoma cell line expressing recombinant P2Y2R tagged on its N-terminus with NLuc (NLuc-P2Y2R) was generated. […] These NLuc-P2Y2 cells were treated with increasing concentrations of 66–69 and then treated with the NLuc substrate, furimazine, before the resulting BRET signal was monitored. […] However, this did illustrate the power of using NanoBRET to monitor ligand binding to low-affinity receptors.
Nucleophilic displacement of the 2-chloro substituent of 43 by either tert-butyl 3-aminopropanoate or tert-butyl 6-aminohexanoate gave the corresponding tert-butyl esters (70 and 71). […] The carboxylic acids were generated from the tert-butyl esters via TFA-mediated hydrolysis and subsequently coupled with tert-butyl (2-aminoethyl)carbamate or tert-butyl (2-(2-aminoethoxy)ethyl)carbamate to generate the corresponding amides (74–77). The Boc protecting groups were removed using TFA, and the resulting amines were coupled with the appropriate commercially available BODIPY succinimidyl ester (SE), generating a small library of 14 fluorescent conjugates (78–91). These fluorescent conjugates were initially tested using the aforementioned NanoBRET binding assay at fixed concentrations of 10 μM in the presence or absence of 10 μM 1 (see Figure S1 in the Supporting Information).
The saturation and competition binding assays were performed according to the methodology of Stoddart.[18] Briefly, the assays were performed on stably transfected NLucP2Y2-1321N1 cells that had been seeded 24 h prior to the experiment in white Thermo Scientific Matrix 96-well microplates. The medium in each well was removed and replaced with HBSS containing apyrase (1 U/mL) and the required concentration of the fluorescent ligand with or without the competing ligand. Upon the addition of the fluorescent ligand, the cells were incubated for 1 h at 37 °C without CO2. The NLuc substrate, furimazine (Promega), was then added to a final concentration of 10 μM, and the plate was incubated for a further 5 min at 37 °C without CO2. The luminescence and resulting BRET were measured using a PHERAstar FS plate reader (BMG Labtech) at room temperature. For the assays involving 97, sequential measurements of the filtered light emissions were made at 460 nm (80 nm bandpass) and >610 nm (long-pass), and the raw BRET ratios were calculated by dividing the >610 nm emissions by the 460 nm emissions. For the assays involving 98, the measurements were made at 475 nm (30 nm bandpass) and 535 nm (30 nm bandpass), and the raw BRET ratios were calculated by dividing the 535 nm emissions by the 475 nm emissions.
The total and nonspecific saturation binding curves were fitted simultaneously using eq 2: [drawing 7] 2 where Bmax is the maximum specific BRET signal, [b] is the nanomolar concentration of the fluorescent ligand, Kd is the equilibrium dissociation constant in nanomolar, M is the slope of the nonspecific-binding component, and C is the intercept with the Y-axis. The pKd is −logKd.

[3] = molecular target: T2, hP2Y2R (Homo sapiens, UniProt P41231); experiment: Calcium-mobilization assay in P2Y2-1321N1 cells (antagonism of UTPγS); format: cell-based
T2 construct: The 1321N1 cells expressing wild-type P2Y2R (P2Y2R-1321N1) were gifted by Dr. Elizabeth Rosethorne; expressed in transfected cells; host or cells: 1321N1 astrocytoma cells (P2Y2R-1321N1), gifted

[4] = molecular target: T2, hP2Y2R; experiment: Confocal microscopy of fluorescent ligands on 1321N1 astrocytoma cells expressing hP2Y2R; format: cell-based; conditions: for membrane-specific fluorescence after pretreatment with 1: 100 nM fluorescent ligand plus 10 μM 1, 30 min at 37 °C; for confocal imaging: fluorescence localisation: 100 nM fluorescent ligand, 1321N1 astrocytoma cells expressing hP2Y2R
Method: The P2Y2R-1321N1 cells were grown to approximately 80% confluency on eight-well Labtek chambered cover glasses (Nunc Nalgene) in normal growth medium. The growth medium was removed and replaced with HBSS containing apyrase (1 U/mL) and either 1 (10 μM) or the vehicle, and the cells incubated for 30 min at 37 °C without CO2. The cells were then incubated with 97 or 98 at the required concentration for 10 min at room temperature prior to the collection of the single-equatorial confocal images. The images were obtained on a Zeiss LSM710 confocal microscope using a 40× c-Apochromat 1.2NA water-immersion objective. For 97, the images were collected using a 633 nm excitation wavelength and a 488/561/633 dichroic, and the emissions were collected through a 650LP filter. For 98, a 488 nm excitation wavelength was used with the same dichroic, and the emissions were collected using an LP575 filter. In each case, a pinhole diameter of 1 airy unit was used, and the laser power, gain, and offset were kept the same for all of the samples within each experiment. For both 97 and 98, the images presented are as representative of an individual experiment with matched conditions. Linear adjustments to the image brightness and contrast have been applied equally across all of the comparative images using Zen software in order to prepare the images for presentation.

[5] = 10 μM fluorescent ligand, rightward shift of agonist dose–response curve, hP2Y2R-1321N1 cells, read-out: pKb (converted)

T1 sequence (P41231 2-377 limits assumed): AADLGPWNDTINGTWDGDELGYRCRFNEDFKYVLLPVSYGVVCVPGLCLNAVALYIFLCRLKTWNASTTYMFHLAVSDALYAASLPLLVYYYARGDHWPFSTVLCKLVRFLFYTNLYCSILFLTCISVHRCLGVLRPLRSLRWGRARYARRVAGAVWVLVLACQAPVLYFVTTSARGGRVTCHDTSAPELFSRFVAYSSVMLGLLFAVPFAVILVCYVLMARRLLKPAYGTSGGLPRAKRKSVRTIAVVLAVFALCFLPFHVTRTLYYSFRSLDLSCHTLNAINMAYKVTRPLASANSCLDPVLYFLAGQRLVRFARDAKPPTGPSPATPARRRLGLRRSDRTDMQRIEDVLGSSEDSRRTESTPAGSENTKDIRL
T2 sequence (P41231 whole entry): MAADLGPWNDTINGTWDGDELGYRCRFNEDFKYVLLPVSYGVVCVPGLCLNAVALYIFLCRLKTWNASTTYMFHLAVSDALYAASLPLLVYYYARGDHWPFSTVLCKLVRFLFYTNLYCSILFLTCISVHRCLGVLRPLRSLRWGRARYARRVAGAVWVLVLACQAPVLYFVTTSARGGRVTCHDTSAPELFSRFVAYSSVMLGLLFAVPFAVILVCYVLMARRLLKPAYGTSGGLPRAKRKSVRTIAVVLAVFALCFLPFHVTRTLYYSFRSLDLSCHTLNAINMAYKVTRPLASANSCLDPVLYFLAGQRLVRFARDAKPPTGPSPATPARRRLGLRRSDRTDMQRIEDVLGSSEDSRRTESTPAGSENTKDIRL

Q: Which EC50 [1] does the source give for `Nc1ncnc2c1ncn2[C@@H]1O[C@H](COP(=O)(O)OP(=O)(O)OP(=O)(O)O)[C@@H](O)[C@H]1O` [ATP, adenosine-5′-triphosphate] here?
A: 0.23 µM

Q: Which results are given for `Cn1cc(C2c3ccc(Cl)cc3C=Cc3sc(NCCC(=O)NCCOCCOCCNC(=O)CCCCCNC(=O)COc4ccc(/C=C/C5=[N+]6C(=Cc7ccc(-c8cccs8)n7[B-]6(F)F)C=C5)cc4)nc32)c(=S)[nH]c1=O` (centres unmarked) [Example 80, (E)-N-(2-(2-(2-(3-((7-Chloro-4-(1-methyl-2-oxo-4-thioxo-1,2,3,4-tetrahydropyrimidin-5-yl)-4H-benzo[5,6]cyclohepta[1,2-d]thiazol-2-yl)amino)propanamido)ethoxy)ethoxy)ethyl)-6-(2-(4-(2-(5,5-difluoro-7-(thiophen-2-yl)-5H-4λ^4,5λ^4-dipyrrolo[1,2-c:2′,1′-f][1,3,2]diazaborinin-3-yl)vinyl)phenoxy)acetamido)hexanamide]?
A: Kd ([2]; Table 5, read-out: pKd (converted)): 5.13 µM; specific NanoBRET signal [2]: largest specific NanoBRET signals

Q: For `Cc1cc(C)n2c1C=C1C=CC(CCC(=O)NCCNC(=O)CCNc3nc4c(s3)C=Cc3cc(Cl)ccc3C4c3cn(C)c(=O)[nH]c3=S)=[N+]1[B-]2(F)F` (centres unmarked) [Example 85, 3-((7-Chloro-4-(1-methyl-2-oxo-4-thioxo-1,2,3,4-tetrahydropyrimidin-5-yl)-4H-benzo[5,6]cyclohepta[1,2-d]thiazol-2-yl)amino)-N-(2-(3-(5,5-difluoro-7,9-dimethyl-5H-4λ^4,5λ^4-dipyrrolo[1,2-c:2′,1′-f][1,3,2]diazaborinin-3-yl)propanamido)ethyl)propanamide], which “specific NanoBRET signal” value [2] is on record?
A: largest specific NanoBRET signals

Q: With `Cc1cc(C)n2c1C=C1C=CC(CCC(=O)NCCCCCC(=O)NCCNC(=O)CCNc3nc4c(s3)C=Cc3cc(Cl)ccc3C4c3cn(C)c(=O)[nH]c3=S)=[N+]1[B-]2(F)F` (centres unmarked) [Example 86, N-(2-(3-((7-Chloro-4-(1-methyl-2-oxo-4-thioxo-1,2,3,4-tetrahydropyrimidin-5-yl)-4H-benzo[5,6]cyclohepta[1,2-d]thiazol-2-yl)amino)propanamido)ethyl)-6-(3-(5,5-difluoro-7,9-dimethyl-5H-4λ^4,5λ^4-dipyrrolo[1,2-c:2′,1′-f][1,3,2]diazaborinin-3-yl)propanamido)hexanamide] as the molecule, how does the Kb ([3]; Table 7, Gaddum equation, shift of agonist dose–response curve by a single antagonist concentration, mean ± SEM, read-out: pKb Ca2+ mobilization (converted)) read?
A: 0.501 µM

Q: What about the “specific NanoBRET signal” value [2] of the same molecule?
A: largest specific NanoBRET signals

Q: For `Cc1cc(C)n2c1C=C1C=CC(CCC(=O)NCCCCCC(=O)NCCOCCOCCNC(=O)CCNc3nc4c(s3)C=Cc3cc(Cl)ccc3C4c3cn(C)c(=O)[nH]c3=S)=[N+]1[B-]2(F)F` (centres unmarked) [Example 87, N-(2-(2-(2-(3-((7-Chloro-4-(1-methyl-2-oxo-4-thioxo-1,2,3,4-tetrahydropyrimidin-5-yl)-4H-benzo[5,6]cyclohepta[1,2-d]thiazol-2-yl)amino)propanamido)ethoxy)ethoxy)ethyl)-6-(3-(5,5-difluoro-7,9-dimethyl-5H-4λ^4,5λ^4-dipyrrolo[1,2-c:2′,1′-f][1,3,2]diazaborinin-3-yl)propanamido)hexanamide], which “specific NanoBRET signal” value [2] is on record?
A: largest specific NanoBRET signals

Q: With `O=C(CCCCCNC(=O)COc1ccc(/C=C/C2=[N+]3C(=Cc4ccc(-c5cccs5)n4[B-]3(F)F)C=C2)cc1)NCCNC(=O)CCNc1nc2c(s1)C=Cc1cc(Cl)ccc1C2c1cn(Cc2nc(C(=O)Nc3nnn[nH]3)cs2)c(=O)[nH]c1=S` (centres unmarked) [Example 97, (E)-2-((5-(7-Chloro-2-((3-((2-(6-(2-(4-(2-(5,5-difluoro-7-(thiophen-2-yl)-5H-4λ^4,5λ^4-dipyrrolo[1,2-c:2′,1′-f][1,3,2]diazaborinin-3-yl)vinyl)phenoxy)acetamido)hexanamido)ethyl)amino)-3-oxopropyl)amino)-4H-benzo[5,6]cyclohepta[1,2-d]thiazol-4-yl)-2-oxo-4-thioxo-3,4-dihydropyrimidin-1(2H)-yl)methyl)-N-(1H-tetrazol-5-yl)thiazole-4-carboxamide] as the molecule, how does the Kb [3, 5] read?
A: 2.04 µM

Q: And the “membrane-specific fluorescence after pretreatment with 1” value [4]?
A: substantially reduced

Q: And the “confocal imaging: fluorescence localisation” value [4]?
A: localized membrane fluorescence and very little intracellular fluorescence

Q: With `CC1=CC(C)=[N+]2C1=Cc1ccc(CCC(=O)NCCCCCC(=O)NCCNC(=O)CCNc3nc4c(s3)C=Cc3cc(Cl)ccc3C4c3cn(Cc4nc(C(=O)Nc5nnn[nH]5)cs4)c(=O)[nH]c3=S)n1[B-]2(F)F` (centres unmarked) [Example 98, (E)-2-((5-(7-Chloro-2-((3-((2-(6-(3-(5,5-difluoro-7,9-dimethyl-5H-5λ^4,6λ^4-dipyrrolo[1,2-c:2′,1′-f][1,3,2]diazaborinin-3-yl)propanamido)hexanamido)ethyl)amino)-3-oxopropyl)amino)-4H-benzo[5,6]cyclohepta[1,2-d]thiazol-4-yl)-2-oxo-4-thioxo-3,4-dihydropyrimidin-1(2H)-yl)methyl)-N-(1H-tetrazol-5-yl)thiazole-4-carboxamide] as the molecule, how does the Kb [3, 5] read?
A: 1.35 µM

Q: And the Kd ([2]; Table 6, read-out: NanoBRET pKd (converted))?
A: 0.479 µM

Q: And the “membrane-specific fluorescence after pretreatment with 1” value [4]?
A: substantially reduced

Q: And the “confocal imaging: fluorescence localisation” value [4]?
A: localized membrane fluorescence and very little intracellular fluorescence

Q: For `O=c1ccn([C@@H]2O[C@H](COP(=O)(O)OP(=O)(O)OP(=O)(O)O)[C@@H](O)[C@H]2O)c(=O)[nH]1` [UTP, uridine-5′-triphosphate], which EC50 [1] is on record?
A: 0.14 µM

Q: With “(E)-N1-(2-(6-(2-(4-(2-(5,5-Difluoro-7-(thiophen-2-yl)-5H-4λ^4,5λ^4-dipyrrolo[1,2-c:2′,1′-f][1,3,2]diazaborinin-3-yl)vinyl)phenoxy)acetamido)hexanamido)ethyl)-5-((5-(2,8-dimethyl-5H-dibenzo[a,d][7]annulen-5-yl)-2-oxo-4-thioxo-3,4-dihydropyrimidin-1(2H)-yl)methyl)-N3-(1H-tetrazol-5-yl)isophthalamide [Example 67]” as the molecule, how does the “NanoBRET pKd” value [2] read?
A: 5.78 ± 0.18 (3)

Q: Which “NanoBRET pKd” value [2] does the source give for “(E)-N1-(18-(4-(2-(5,5-Difluoro-7-(thiophen-2-yl)-5H-4λ^4,5λ^4-dipyrrolo[1,2-c:2′,1′-f][1,3,2]diazaborinin-3-yl)vinyl)phenoxy)-10,17-dioxo-3,6-dioxa-9,16-diazaoctadecyl)-5-((5-(2,8-dimethyl-5H-dibenzo[a,d][7]annulen-5-yl)-2-oxo-4-thioxo-3,4-dihydropyrimidin-1(2H)-yl)methyl)-N3-(1H-tetrazol-5-yl)isophthalamide [Example 69]” here?
A: 6.07 ± 0.15 (3)
